Laboratory results reported in ChEMBL document CHEMBL1150336, “Synthesis and antibacterial activity of novel pyrido[1,2,3-de][1,4]benzoxazine-6-carboxylic acid derivatives carrying the 3-cyclopropylaminomethyl-4-substituted-1-pyrrolidinyl group as a C-10 substituent” (J Med Chem, 2008).
≈ marks a conversion by molar mass, not a printed value.

Assays:
DNA gyrase [1] = target: T1, DNA gyrase (Staphylococcus aureus, UniProt P0A0K8+P20831); test: Inhibition of Staphylococcus aureus MS5935 wild type DNA gyrase-mediated supercoiling activity; type: protein-complex assay
T1 sequence (P0A0K8 whole entry): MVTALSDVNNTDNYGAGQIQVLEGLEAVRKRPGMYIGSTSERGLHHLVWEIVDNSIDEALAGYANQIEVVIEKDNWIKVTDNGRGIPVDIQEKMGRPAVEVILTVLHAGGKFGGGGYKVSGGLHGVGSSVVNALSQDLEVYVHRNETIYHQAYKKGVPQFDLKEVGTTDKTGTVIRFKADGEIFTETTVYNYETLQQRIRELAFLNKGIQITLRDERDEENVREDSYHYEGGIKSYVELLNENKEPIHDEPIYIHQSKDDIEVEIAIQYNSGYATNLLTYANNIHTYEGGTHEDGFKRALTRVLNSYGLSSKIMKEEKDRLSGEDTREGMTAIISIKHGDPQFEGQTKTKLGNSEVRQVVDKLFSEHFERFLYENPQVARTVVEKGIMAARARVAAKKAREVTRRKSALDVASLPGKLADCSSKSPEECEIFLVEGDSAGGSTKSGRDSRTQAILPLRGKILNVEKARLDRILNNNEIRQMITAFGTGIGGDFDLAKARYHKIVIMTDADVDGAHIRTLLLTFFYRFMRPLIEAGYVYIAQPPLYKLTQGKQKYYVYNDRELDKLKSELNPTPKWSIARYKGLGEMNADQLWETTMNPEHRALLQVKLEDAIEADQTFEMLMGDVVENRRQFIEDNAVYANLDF
T1 sequence (P20831 whole entry): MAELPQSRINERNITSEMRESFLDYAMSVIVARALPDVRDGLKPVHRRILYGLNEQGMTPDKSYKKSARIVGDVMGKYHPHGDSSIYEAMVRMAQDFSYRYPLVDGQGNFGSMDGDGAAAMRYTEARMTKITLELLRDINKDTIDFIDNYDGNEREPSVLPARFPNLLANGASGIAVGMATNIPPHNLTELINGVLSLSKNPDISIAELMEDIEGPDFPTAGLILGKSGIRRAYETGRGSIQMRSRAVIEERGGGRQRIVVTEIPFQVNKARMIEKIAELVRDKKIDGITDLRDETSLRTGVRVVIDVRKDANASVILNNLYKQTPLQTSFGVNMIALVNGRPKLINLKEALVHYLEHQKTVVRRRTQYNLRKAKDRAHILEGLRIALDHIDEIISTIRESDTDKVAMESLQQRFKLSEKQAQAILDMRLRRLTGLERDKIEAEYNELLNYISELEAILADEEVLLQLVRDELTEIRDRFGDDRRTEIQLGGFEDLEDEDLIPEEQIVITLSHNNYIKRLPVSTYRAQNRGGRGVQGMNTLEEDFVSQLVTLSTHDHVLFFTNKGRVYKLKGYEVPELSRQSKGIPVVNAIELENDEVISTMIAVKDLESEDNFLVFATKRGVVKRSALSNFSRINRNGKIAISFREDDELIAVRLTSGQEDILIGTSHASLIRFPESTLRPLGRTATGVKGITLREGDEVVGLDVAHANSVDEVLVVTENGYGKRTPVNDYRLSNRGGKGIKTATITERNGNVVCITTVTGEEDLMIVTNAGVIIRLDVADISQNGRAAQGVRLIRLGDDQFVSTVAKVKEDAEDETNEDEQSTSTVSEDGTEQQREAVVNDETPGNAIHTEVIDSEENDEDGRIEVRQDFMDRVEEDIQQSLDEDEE

Staphylococcus aureus [2] = test: Antibacterial activity against Staphylococcus aureus Smith infected in subcutaneously dosed ICR mouse administered 1 hr after bacterial challenge measured at 7 days post infection; type: functional; conditions: sc
Mus musculus [3] = test: Toxicity in intracerebroventricularly dosed ICR mouse assessed as induction of convulsion after 2 hrs in presence of fenbufen; type: organism-based; conditions: in vivo, icv_or_intrathecal
Streptococcus pneumoniae [4] = test: Antibacterial activity against Streptococcus pneumoniae type 3 infected in po dosed ICR mouse administered 1 hr after bacterial challenge measured at 7 days post infection; type: functional
Streptococcus pneumoniae [5] = test: Antibacterial activity against quinoline-resistant Streptococcus pneumoniae no.55 isolate after 18 hrs by agar dilution method; type: functional
[6] = Inhibition of quinoline-resistant Staphylococcus aureus MS5935 topoisomerase 4-mediated decatenation activity
Staphylococcus aureus [7] = test: Antibacterial activity against quinoline-resistant Staphylococcus aureus OITI MR1-1002 isolate after 18 hrs by agar dilution method; type: functional
Staphylococcus aureus [8] = test: Antibacterial activity against quinoline-resistant Staphylococcus aureus MS5935 containing single grlA mutation after 18 hrs by agar dilution method; type: functional
Staphylococcus aureus [9] = test: Antibacterial activity against quinoline-resistant Staphylococcus aureus MS5935 containing single grlA and single gyrA mutation after 18 hrs by agar dilution method; type: functional
Mus musculus [10] = test: Phototoxicity in orally dosed ICR mouse assessed as skin erythema after 72 hrs; type: organism-based; conditions: in vivo, po
Mus musculus [11] = test: Toxicity in ICR mouse assessed as mortality administered as single dose at 200 mg/kg, iv after 7 days; type: organism-based; set-up: dose 200 mg/kg, route intravenous; conditions: in vivo, 168 h
Staphylococcus aureus [12] = test: Antibacterial activity against Staphylococcus aureus Smith infected in po dosed ICR mouse administered 1 hr after bacterial challenge measured at 7 days post infection; type: functional
Staphylococcus aureus [13] = test: Antibacterial activity against quinoline-resistant wild type Staphylococcus aureus MS5935 after 18 hrs by agar dilution method; type: functional
Staphylococcus aureus [14] = test: Antibacterial activity against Staphylococcus aureus Smith after 18 hrs by agar dilution method; type: functional
Streptococcus pneumoniae [15] = test: Antibacterial activity against Streptococcus pneumoniae type 3 infected in subcutaneously dosed ICR mouse administered 1 hr after bacterial challenge measured at 7 days post infection; type: functional; conditions: sc
Enterococcus faecalis [16] = test: Antibacterial activity against vancomycin-resistant Enterococcus faecalis KU1866 after 18 hrs by agar dilution method; type: functional
Haemophilus influenzae = test: Antibacterial activity against Haemophilus influenzae IID983 after 18 hrs by agar dilution method; type: functional
Staphylococcus aureus [17] = test: Antibacterial activity against quinoline-resistant Staphylococcus aureus MS5935 containing double grlA and single gyrA mutation after 18 hrs by agar dilution method; type: functional
Staphylococcus aureus [18] = test: Antibacterial activity against quinoline-resistant Staphylococcus aureus MS5935 containing double grlA and double gyrA mutation after 18 hrs by agar dilution method; type: functional
Mus musculus [19] = test: Toxicity in ICR mouse assessed as mortality administered as single dose at 100 mg/kg, iv after 7 days; type: organism-based; set-up: dose 100 mg/kg, route intravenous; conditions: in vivo, 168 h
Enterococcus faecalis [20] = test: Antibacterial activity against quinoline-resistant Enterococcus faecalis No.15 isolate after 18 hrs by agar dilution method; type: functional
Enterococcus faecalis [21] = test: Antibacterial activity against Enterococcus faecalis IID682 after 18 hrs by agar dilution method; type: functional
Escherichia coli = test: Antibacterial activity against Escherichia coli NIHJ JC2 after 18 hrs by agar dilution method; type: functional; conditions: NIHJ JC2, 18 h
Enterococcus faecalis [22] = test: Antibacterial activity against vancomycin-resistant Enterococcus faecalis KU1856 after 18 hrs by agar dilution method; type: functional
[23] = Inhibition of Staphylococcus aureus MS5935 wild type topoisomerase 4-mediated decatenation activity
DNA gyrase [24] = target: T1, DNA gyrase; test: Inhibition of quinoline-resistant Staphylococcus aureus MS5935 DNA gyrase-mediated supercoiling activity; type: protein-complex assay
Pseudomonas aeruginosa = test: Antibacterial activity against Pseudomonas aeruginosa IID1210 after 18 hrs by agar dilution method; type: functional
Streptococcus pyogenes = test: Antibacterial activity against Streptococcus pyogenes IID692 after 18 hrs by agar dilution method; type: functional
Klebsiella pneumoniae = test: Antibacterial activity against Klebsiella pneumoniae IID5209 after 18 hrs by agar dilution method; type: functional
Streptococcus pneumoniae [25] = test: Antibacterial activity against Streptococcus pneumoniae type 3 after 18 hrs by agar dilution method; type: functional
Mus musculus [26] = test: Toxicity in intracerebroventricularly dosed ICR mouse assessed as induction of convulsion after 2 hrs in absence of fenbufen; type: organism-based; conditions: in vivo, icv_or_intrathecal

For O=C(O)c1cn2c3c(c(N4C[C@H](CNC5CC5)[C@H](F)C4)c(F)cc3c1=O)OC[C@@H]2CF, which IC50 (DNA gyrase [1]) is on record?
The IC50 was 2.42 µM.

And the ED50 (Staphylococcus aureus [2])?
The ED50 was 0.12 mg/kg.

And the Activity (Mus musculus [3])?
Its Activity is over 40 µg.

What about the ED50 (Streptococcus pneumoniae [4]) of the same compound?
The ED50 was 4 mg/kg.

What about the MIC (Streptococcus pneumoniae [5]) of the same compound?
Its MIC is 0.25 µg/mL (≈ 0.572 µM).

And the IC50 [6]?
The IC50 was 7 µg/mL (≈ 16 µM).

And the MIC (Staphylococcus aureus [7])?
The MIC was 1 µg/mL (≈ 2.29 µM).

What about the MIC (Staphylococcus aureus [8]) of the same compound?
The MIC was 0.031 µg/mL (≈ 0.0709 µM).

What about the MIC (Staphylococcus aureus [9]) of the same compound?
The MIC was 0.25 µg/mL (≈ 0.572 µM).

What about the Activity (Mus musculus [10]) of the same compound?
The Activity was “Non-toxic”.

What about the Activity (Mus musculus [11]) of the same compound?
The Activity was “Non-toxic”.

What about the ED50 (Staphylococcus aureus [12]) of the same compound?
The ED50 was 0.5 mg/kg.

And the MIC (Staphylococcus aureus [13])?
Its MIC is 0.016 µg/mL (≈ 0.0366 µM).

And the MIC (Staphylococcus aureus [14])?
The MIC was 0.008 µg/mL (≈ 0.0183 µM).

And the ED50 (Streptococcus pneumoniae [15])?
The ED50 was 2.9 mg/kg.

What about the MIC (Enterococcus faecalis [16]) of the same compound?
Its MIC is 0.5 µg/mL (≈ 1.14 µM).

What about the MIC (Haemophilus influenzae) of the same compound?
Its MIC is 0.004 µg/mL (≈ 0.00914 µM).

And the MIC (Staphylococcus aureus [17])?
The MIC was 0.5 µg/mL (≈ 1.14 µM).

And the MIC (Staphylococcus aureus [18])?
Its MIC is 4 µg/mL (≈ 9.14 µM).

And the Activity (Mus musculus [19])?
The Activity was “Non-toxic”.

What about the MIC (Enterococcus faecalis [20]) of the same compound?
The MIC was 1 µg/mL (≈ 2.29 µM).

What about the MIC (Enterococcus faecalis [21]) of the same compound?
Its MIC is 0.063 µg/mL (≈ 0.144 µM).

What about the MIC (Escherichia coli) of the same compound?
The MIC was 0.008 µg/mL (≈ 0.0183 µM).

And the MIC (Enterococcus faecalis [22])?
The MIC was 0.5 µg/mL (≈ 1.14 µM).

And the IC50 [23]?
The IC50 was 1.27 µg/mL (≈ 2.9 µM).

What about the IC50 (DNA gyrase [24]) of the same compound?
The IC50 was 31.1 µM.

And the MIC (Pseudomonas aeruginosa)?
The MIC was 2 µg/mL (≈ 4.57 µM).

What about the MIC (Streptococcus pyogenes) of the same compound?
The MIC was 0.031 µg/mL (≈ 0.0709 µM).

What about the MIC (Klebsiella pneumoniae) of the same compound?
Its MIC is 0.031 µg/mL (≈ 0.0709 µM).

What about the MIC (Streptococcus pneumoniae [25]) of the same compound?
The MIC was 0.016 µg/mL (≈ 0.0366 µM).

And the Activity (Mus musculus [26])?
The Activity was over 40 µg.

Which results are given for NC1CCN(c2c(F)cc3c(=O)c(C(=O)O)cn(C4CC4)c3c2Cl)C1 (configuration not stated) [CLINAFLOXACIN]?
IC50 (DNA gyrase [1]): 3.14 µM; ED50 (Staphylococcus aureus [2]): 0.35 mg/kg; Activity (Mus musculus [3]): 5 µg; ED50 (Streptococcus pneumoniae [4]): 15 mg/kg; MIC (Streptococcus pneumoniae [5]): 0.5 µg/mL (≈ 1.37 µM); IC50 [6]: 13.9 µg/mL (≈ 38 µM); MIC (Staphylococcus aureus [7]): 8 µg/mL (≈ 21.9 µM); MIC (Staphylococcus aureus [8]): 0.063 µg/mL (≈ 0.172 µM); MIC (Staphylococcus aureus [9]): 0.5 µg/mL (≈ 1.37 µM); Activity (Mus musculus [10]): Toxic; Activity (Mus musculus [11]): Non-toxic; ED50 (Staphylococcus aureus [12]): 2.1 mg/kg; MIC (Staphylococcus aureus [13]): 0.016 µg/mL (≈ 0.0437 µM); MIC (Staphylococcus aureus [14]): 0.016 µg/mL (≈ 0.0437 µM); ED50 (Streptococcus pneumoniae [15]): 45 mg/kg; MIC (Enterococcus faecalis [16]): 4 µg/mL (≈ 10.9 µM); MIC (Haemophilus influenzae): ≤ 0.001 µg/mL; MIC (Staphylococcus aureus [17]): 2 µg/mL (≈ 5.47 µM); MIC (Staphylococcus aureus [18]): 8 µg/mL (≈ 21.9 µM); Activity (Mus musculus [19]): Non-toxic; MIC (Enterococcus faecalis [20]): 8 µg/mL (≈ 21.9 µM); MIC (Enterococcus faecalis [21]): 0.063 µg/mL (≈ 0.172 µM); MIC (Escherichia coli): 0.002 µg/mL (≈ 0.00547 µM); MIC (Enterococcus faecalis [22]): 2 µg/mL (≈ 5.47 µM); IC50 [23]: 1.89 µg/mL (≈ 5.17 µM); IC50 (DNA gyrase [24]): 44.3 µM; MIC (Pseudomonas aeruginosa): 0.125 µg/mL (≈ 0.342 µM); MIC (Streptococcus pyogenes): 0.063 µg/mL (≈ 0.172 µM); MIC (Klebsiella pneumoniae): 0.004 µg/mL (≈ 0.0109 µM); MIC (Streptococcus pneumoniae [25]): 0.031 µg/mL (≈ 0.0847 µM); Activity (Mus musculus [26]): 10 µg
